# Measurements as given in US20090047672A1, “Telomerase RNA Subunit and Methods of Use Thereof” (priority 2005, published 2009).
# System: H2AX
# Assay: Immunoblotting of DNA damage response (H2AX phosphorylation)
# Format: cell-based, human
# Conditions: BJ fibroblasts expressing control shRNA, 10 μM for 4 hrs
# Text: The antibodies used in this study included: rabbit anti-H2AX (Novus); rabbit anti—H2AX (Upstate Biotechnology); rabbit anti-H2B (Upstate Biotechnology); mouse anti-H3 (Upstate Biotechnology); rabbit anti-H4 (Upstate Biotechnology); rabbit anti-macro H2A.1 (Upstate Biotechnology); rabbit anti-dimethyl H3 (K9) (Upstate Biotechnology); rabbit anti-acetyl H3 (Lys9) (Upstate Biotechnology); rabbit anti-acetyl H4 (K12) (Upstate Biotechnology); goat anti-phospho-specific BRCA1 (Ser1497) (Santa Cruz); rabbit anti-ATM-pS1981 (Rockland); rabbit anti-ATM-S1981 (Rockland); and mouse anti-p53 (Ab6) (Oncogene). Cells were lysed in RIPA buffer (12.5 mM NaPO4, pH7.2, 2 mM EDTA, 50 mM NaF, 1.25% NP-40, 1.25% SDS, 0.1 mM DTT) except when specific conditions are noted. For extraction under low salt conditions, cells were lysed in a buffer comprised of 20 mM Tris-HCl, pH 7.4, 150 mM NaCl, 0.1% NP40, 0.1 mM DTT. For high salt condition extraction, cells were lysed in a buffer composed of 20 mM Tris-HCl, pH 7.4, 500 mM NaCl, 0.5% NP40, 0.1 mM DTT. For acid precipitation of histones, cells were homogenized in 0.2 N H2SO4 and centrifuged. Histones were precipitated by adding ¼ volume of 100% (w/v) TCA. The pellets were suspended in 100% ethanol and centrifuged again at 13,000×g. 10 μg of protein was subjected to immunoblotting.
smiles,measurement,value
CCc1c2c(nc3ccc(OC(=O)N4CCC(N5CCCCC5)CC4)cc13)-c1cc3c(c(=O)n1C2)COC(=O)[C@]3(O)CC [irinotecan],Phosphorylation of H2AX after treatment with chemotherapeutic agent,induced phosphorylation of H2AX
